Experimental data taken from patent publication US20040254170A1, “Method of treating functional bowel disorders” (Dynogen, Inc., priority 2003, published 2004).
“And” between values parts separate entries of the source, which are not always exact repeats. Identical values can stand only once. Like-named read-outs stand apart in the source and are kept apart here.

Legend:
[1] = test system: acetic acid sensitized male Fisher rats; test: Visceromotor response to colorectal distension, acetic acid-induced colonic hypersensitivity; format: in vivo, rat; conditions: for visceromotor response (number of abdominal contractions) to CRD compared to vehicle: all doses i.p. (ondansetron 1, 5, 10 mg/kg; nisoxetine 3, 10, 30 mg/kg), all distension pressures
Method: The visceromotor behavioral response to colorectal distension was measured by counting the number of abdominal contractions recorded by a strain gauge sutured onto the abdominal musculature as described in Gunter et al., Physiol. […] A 5 cm latex balloon catheter inserted via the anal canal into the colon was used for colorectal distensions. Constant pressure tonic distensions were performed in a graded manner (15, 30 or 60 mmHg) and were maintained for a period of 10 min and the numbers of abdominal muscle contractions were recorded to measure the level of colonic sensation. A 10 min recovery was allowed between distensions.
J. Physiol. […] In the present study, a low concentration of acetic acid (1.5 ml, 0.6%) was administered intracolonically to sensitize the colon without causing histological damage to the colonic mucosa as described in previous studies (Gunter et al., supra).
Injection volume was 0.2 mL using 100% propylene glycol as the vehicle. Three consecutive colorectal distensions at 15, 30 or 60 mmHg applied at 10-min intervals were recorded. Visceromotor responses were evaluated as the number of abdominal muscle contractions recorded during the 10-min periods of colorectal distension.
Adult male rats were used in the study. […] Specifically, rats were anesthetized with Isoflurane (2%) and were instrumented with a strain gauge force transducer for recording of abdominal muscle contractions. A latex balloon and catheter were inserted 11 cm into the colon. The animals were allowed a 30-min period to completely recover from the anesthesia and were then subjected to intracolonic infusion of acetic acid (1.5 mL, 0.6%). An additional 30-min period was allowed for sensitization of the colon. […] The protocol for colorectal distension was initiated 30-min post drug administration. After a basal reading of the number of abdominal contractions with the balloon inserted but not distended, three consecutive 10-min lasting colorectal distensions at 15, 30, and 60 mmHg were applied at 10-min intervals. Colorectal sensitivity was evaluated by counting the number of reflex abdominal contractions (i.e. the visceromotor response) observed within each distension period.
Acetic acid-induced colonic hypersensitivity in rats has been described by Langlois et al. and Plourde et al., referenced above.
The visceromotor behavioral response to colorectal distension was measured by counting the number of abdominal contractions recorded by a strain gauge sutured onto the abdominal musculature as previously described Gunter et al., referenced above. Colorectal distensions were carried out utilizing a 5 cm latex balloon catheter inserted into the colon via the anal canal. Constant pressure tonic distensions were performed in a graded manner, i.e., the pressure was increased to the desired level of 15, 30, or 60 mmHg and then maintained for a period of 10 minutes during which the number of abdominal contractions were recorded to measure the level of colonic sensation. Ten minute recovery periods were allowed following each distension.

male F-344 rats = test: Small Intestinal Transit (SIT) Rodent Model, charcoal meal; format: in vivo, rat; conditions: for Small intestinal transit, Mean (% of total small intestinal length): 15 min after charcoal meal
Text: Specifically, the effects of MCI-225, the reference compounds (ondansetron and nisoxetine) and the vehicle on small intestinal transit were investigated in rats under control conditions. Following an overnight fast, rats were brought to the laboratory in their home cages and received an i.p. injection of one of the following: MCI-225, 100% propylene glycol (vehicle), ondansetron, nisoxetine and a combination of ondansetron and nisoxetine. Control rats received no treatment. The treated rats were placed back in the home cages and after 30 min, were fed a 2 mL charcoal meal via an oral gavage. Small intestinal transit was measured following 15 min test-period. Each rat was placed briefly in a glass chamber with IsoFlo for anesthesia and sacrificed. The stomach and the small intestine were removed and the total length of the small intestine was measured. Transit was then measured as the distance that the charcoal meal had traveled along the small intestine and expressed as % of the total length. Animals were randomly assigned to experimental groups and experiments were performed as illustrated in Table 3.
Small intestinal transit in rats was investigated by the passage of a charcoal meal along the small intestine during a defined time period (15-min). The animals were deprived of food for 12-16 hrs prior to the experiments. Rats were given a charcoal meal (a mixture of charcoal, gum arabic, and distilled water) as a 2 mL oral gavage and were sacrificed after a 15-min test period. The distance traveled by the charcoal meal was quantified as a percent of the small intestinal length, using the following equation:
Transit (%)=cm traveled by meal/cm total small intestinal length×100
Small intestinal transit was evaluated in relative units (%) of the total intestinal length in the following groups receiving different drug treatment: naïve (untreated), vehicle (propylene glycol, 200 μL i.p.), MCI-225 (3, 10 and 30 mg/kg, i.p.), nisoxetine (3, 10 and 30 mg/kg, i.p.), ondansetron (1, 5 and 10 mg/kg, i.p.) and a combination of nisoxetine (10 mg/kg, i.p.) and ondansetron (5 mg/kg, i.p.). A total of 61 experiments were performed (4-6 rats per group).

[2] = molecular target: T1, noradrenaline transporter ([^3H]NA uptake) (Rattus norvegicus, UniProt Q9WTR4); conditions: read-out: Ki, inhibition of [3H]NA uptake, cited from earlier work
T1 construct: The [^3H]NA uptake assays are performed on the cortical and hypothalamic synaptosomes; from tissue; host or cells: rat hypothalamic and cortical synaptosomes (P2 fraction)

[3] = molecular target: T2, serotonin reuptake ([^3H]5-HT uptake) (Rattus norvegicus, UniProt P31652); conditions: cited from earlier work
T2 construct: The [^3H]5-HT uptake assays are performed on the cortical, hypothalamic and hippocampal synaptosomes; from tissue; host or cells: rat hypothalamic, cortical and hippocampal synaptosomes (P2 fraction)

[4] = molecular target: T3, dopamine reuptake ([^3H]DA uptake) (Rattus norvegicus, UniProt P23977); conditions: synaptosomes from rat striatal tissue; read-out: Ki, inhibition of [3H]DA uptake; cited from earlier work
T3 construct: the [^3H]DA uptake assays are performed on striatal synaptosomes; from tissue; host or cells: rat striatal synaptosomes (P2 fraction)

5-HT3 receptor = molecular target: T4, 5-HT3 receptor (Mus musculus, UniProt P23979); conditions: radioligand binding; read-out: Ki, affinity for the 5-HT3 receptor; cited from earlier work
T4 construct: host or cells: N1E-115 mouse neuroblastoma cells
T4 sequence (P23979 24-489): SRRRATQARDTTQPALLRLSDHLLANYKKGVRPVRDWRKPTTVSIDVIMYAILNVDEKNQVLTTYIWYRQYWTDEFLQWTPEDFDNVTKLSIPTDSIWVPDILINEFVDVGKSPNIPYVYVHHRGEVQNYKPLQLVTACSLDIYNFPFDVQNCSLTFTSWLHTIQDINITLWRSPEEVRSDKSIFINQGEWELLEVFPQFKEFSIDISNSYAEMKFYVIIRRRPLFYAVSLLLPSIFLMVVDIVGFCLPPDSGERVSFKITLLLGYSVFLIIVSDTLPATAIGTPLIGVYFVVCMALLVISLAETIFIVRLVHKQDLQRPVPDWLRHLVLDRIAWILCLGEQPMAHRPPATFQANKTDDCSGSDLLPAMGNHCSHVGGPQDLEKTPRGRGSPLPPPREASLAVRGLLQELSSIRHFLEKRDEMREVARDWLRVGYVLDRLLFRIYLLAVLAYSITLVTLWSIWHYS

[5] = test system: male F-344 rats subjected to water avoidance stress; test: Water Avoidance Stress (WAS) model, fecal pellet output; format: in vivo, rat; conditions: for number of fecal pellets produced during 1 hour of WAS compared to vehicle: all doses i.p. (MCI-225, nisoxetine 3, 10, 30 mg/kg; ondansetron 1, 5, 10 mg/kg)
Text: The model used in this example provided a method of determining the ability of MCI-225 to normalize accelerated colonic transit induced by water avoidance stress (WAS). […] The model provides a method of evaluating the effectiveness of a compound in a specific patient group of IBS sufferers where stress induced colonic motility is considered a significant contributing factor. All rats underwent sham stress (1-hour in stress chamber without water) for 2-4 consecutive days before undergoing WAS (sham was performed until rats produced 0-1 pellet per hour for 2 consecutive days). At the end of the 1-hour stress period, the fecal pellets were counted and recorded. WAS causes an acceleration of colonic transit, which can be quantified by counting the number of fecal pellets, produced during the stress procedure. Rats were placed for 1-hour into a stress chamber onto a raised platform 7.5 cm×7.5 cm×9 cm (L×W×H) in the center of a stress chamber filled with room temperature water 8 cm in depth. The stress chamber was constructed from a rectangular plastic tub (40.2×60.2×31.2 cm). […] Ondansetron was supplied from APIN Chemicals LTD. […] MCI-225 was provided by Mitsubishi Pharma Corp. All drugs were dissolved in a vehicle of 100% propylene glycol (1,2-propanediol) by sonicating for a period of 10 minutes. Propylene glycol was obtained from Sigma Chemical Co. […] All drugs and the vehicle were administered as an i.p. injection in a volume of 0.2 mL.

T2 sequence (P31652 whole entry): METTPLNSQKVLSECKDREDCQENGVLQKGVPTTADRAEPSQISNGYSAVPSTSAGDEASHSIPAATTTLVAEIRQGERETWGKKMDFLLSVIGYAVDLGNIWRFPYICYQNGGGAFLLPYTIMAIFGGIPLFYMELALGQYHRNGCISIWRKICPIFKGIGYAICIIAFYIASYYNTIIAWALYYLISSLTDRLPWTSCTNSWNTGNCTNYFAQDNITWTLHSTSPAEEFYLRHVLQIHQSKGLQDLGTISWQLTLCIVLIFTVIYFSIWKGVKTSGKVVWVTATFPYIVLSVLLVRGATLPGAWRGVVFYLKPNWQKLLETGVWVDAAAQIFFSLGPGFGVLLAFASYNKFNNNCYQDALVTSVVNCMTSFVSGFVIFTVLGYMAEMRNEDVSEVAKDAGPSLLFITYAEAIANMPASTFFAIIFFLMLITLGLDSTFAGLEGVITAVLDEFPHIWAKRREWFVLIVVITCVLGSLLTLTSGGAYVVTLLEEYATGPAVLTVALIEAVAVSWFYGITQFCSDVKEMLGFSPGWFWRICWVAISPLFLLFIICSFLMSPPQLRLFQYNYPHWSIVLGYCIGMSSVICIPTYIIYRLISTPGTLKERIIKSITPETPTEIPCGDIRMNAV
T1 sequence (Q9WTR4 1-597): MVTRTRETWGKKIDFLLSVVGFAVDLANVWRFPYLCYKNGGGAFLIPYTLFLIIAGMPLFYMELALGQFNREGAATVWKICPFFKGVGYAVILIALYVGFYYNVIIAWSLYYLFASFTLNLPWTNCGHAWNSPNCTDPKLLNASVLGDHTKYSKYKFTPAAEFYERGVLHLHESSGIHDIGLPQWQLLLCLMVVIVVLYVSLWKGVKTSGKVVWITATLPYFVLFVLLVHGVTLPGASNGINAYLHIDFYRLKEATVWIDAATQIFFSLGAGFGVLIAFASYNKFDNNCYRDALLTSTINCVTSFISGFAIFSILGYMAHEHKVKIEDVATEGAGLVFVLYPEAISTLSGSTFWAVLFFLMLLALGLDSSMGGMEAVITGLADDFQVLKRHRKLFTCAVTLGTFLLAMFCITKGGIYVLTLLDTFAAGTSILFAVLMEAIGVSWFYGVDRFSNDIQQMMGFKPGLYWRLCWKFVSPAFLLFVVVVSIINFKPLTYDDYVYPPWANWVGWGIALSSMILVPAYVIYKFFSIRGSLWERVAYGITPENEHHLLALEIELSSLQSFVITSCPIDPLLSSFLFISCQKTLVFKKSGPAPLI
T3 sequence (P23977 whole entry): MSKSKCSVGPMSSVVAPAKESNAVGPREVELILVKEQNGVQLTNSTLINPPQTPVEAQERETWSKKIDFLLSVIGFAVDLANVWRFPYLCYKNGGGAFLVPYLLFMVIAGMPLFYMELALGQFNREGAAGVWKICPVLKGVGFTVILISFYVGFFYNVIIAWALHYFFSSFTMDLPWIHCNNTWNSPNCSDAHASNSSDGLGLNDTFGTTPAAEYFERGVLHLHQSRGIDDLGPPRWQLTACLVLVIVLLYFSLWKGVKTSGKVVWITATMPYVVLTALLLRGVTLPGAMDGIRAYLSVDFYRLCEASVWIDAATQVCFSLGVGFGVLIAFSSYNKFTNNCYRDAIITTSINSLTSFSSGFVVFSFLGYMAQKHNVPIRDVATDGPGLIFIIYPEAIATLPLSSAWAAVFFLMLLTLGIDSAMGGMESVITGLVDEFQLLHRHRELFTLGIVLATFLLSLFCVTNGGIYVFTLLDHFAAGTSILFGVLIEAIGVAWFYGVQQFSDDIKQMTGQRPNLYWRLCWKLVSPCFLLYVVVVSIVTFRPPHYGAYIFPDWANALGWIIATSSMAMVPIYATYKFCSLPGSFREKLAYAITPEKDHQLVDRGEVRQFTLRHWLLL

For Cc1cc2c(-c3ccccc3F)nc(N3CCNCC3)nc2s1 [MCI-225, 4-(2-fluorophenyl)-6-methyl-2-(1-piperazinyl)thieno[2,3-d]pyrimidine], the “animals in which the visceromotor response to CRD was eliminated” value ([1]; Example 1, 30 mg/kg i.p., n=6, CRD 15, 30, 60 mmHg) was 50%, the “Small intestinal transit, Mean (% of total small intestinal length)” value (male F-344 rats; 3 mg/kg i.p.) was 30.1% and the “Small intestinal transit, Mean (% of total small intestinal length)” value (male F-344 rats; 10 mg/kg i.p.) was 4.2±2.6% and 4.2%. The “Small intestinal transit, Mean (% of total small intestinal length)” value (male F-344 rats; 30 mg/kg i.p.) was 8.8%, the Ki ([2]; synaptosomes from rat cortical tissue) was 0.696 nM and the Ki ([2]; synaptosomes from rat hypothalamic tissue) was 35 nM. The Ki ([3]; synaptosomes from rat cortical tissue, read-out: Ki, inhibition of [3H]5-HT uptake) was 1070 nM, the Ki ([3]; synaptosomes from rat hippocampal tissue, read-out: Ki, inhibition of serotonin uptake) was 244 nM and the Ki ([3]; synaptosomes from rat hypothalamic tissue, read-out: Ki, inhibition of [3H]5-HT uptake) was 491 nM. The Ki [4] was 14.8 µM and the Ki (5-HT3 receptor) was under 100 nM.

With CNCCC(Oc1ccccc1OC)c1ccccc1 (stereo not drawn) [Nisoxetine] the “behavior in the home cage during the experiments” value ([1]; Example 2, 30 mg/kg i.p.) was “increased exploratory behavior”, the “visceromotor response (number of abdominal contractions) to CRD compared to vehicle” value ([1]; Example 2) was “no significant effect” and the “number of fecal pellets produced during WAS compared to vehicle” value ([5]; 10 and 30 mg/kg i.p.) was “significantly fewer”. For the same molecule, the “number of fecal pellets produced during 1 hour of WAS compared to vehicle” value [5] was “reduced by all doses”, the “Small intestinal transit, Mean (% of total small intestinal length)” value (male F-344 rats; 3 mg/kg i.p.) was 40.3% and the “Small intestinal transit, Mean (% of total small intestinal length)” value (male F-344 rats; 10 mg/kg i.p.) was 38.6%. For the same molecule, the “animals with charcoal meal completely retained in the stomach” value (male F-344 rats; 30 mg/kg i.p.) was 4 out of 5, the small intestinal transit (male F-344 rats; 30 mg/kg i.p.) was “almost completely inhibited” and the “Small intestinal transit, Mean (% of total small intestinal length)” value (male F-344 rats; 30 mg/kg i.p.) was 4.7%. The small intestinal transit (male F-344 rats; 3 or 10 mg/kg i.p.) was “tendency to decrease”.

For Cc1nccn1CC1CCc2c(c3ccccc3n2C)C1=O (stereo not drawn) [Ondansetron], the “visceromotor response (number of abdominal contractions) to CRD compared to vehicle” value ([1]; Example 2) was “significant dose-dependent inhibition”, the “changes in behavioral activity of the rats” value ([1]; Example 2, following treatment 1, 5 or 10 mg/kg i.p.) was “No significant changes” and the “responses to moderate and high intraluminal pressure” value ([1]; Example 2, highest dose 10 mg/kg i.p., 30 and 60 mmHg, responses not abolished) was “reduced these responses to levels characteristic for naïve non-sensitized rats”. For the same molecule, the “number of fecal pellets produced during 1 hour of WAS compared to vehicle” value [5] was “significantly less”, the “Small intestinal transit, Mean (% of total small intestinal length)” value (male F-344 rats; 1 mg/kg i.p.) was 27.6% and the “Small intestinal transit, Mean (% of total small intestinal length)” value (male F-344 rats; 5 mg/kg i.p.) was 32.1%. The “Small intestinal transit, Mean (% of total small intestinal length)” value (male F-344 rats; 10 mg/kg i.p.) was 18.4%%, the “small intestinal transit compared to vehicle” value (male F-344 rats; across doses i.p. (MCI-225 3, 10, 30 mg/kg; ondansetron 1, 5, 10 mg/kg)) was “significant reduction” and the “advance of the charcoal meal from the stomach into the small intestine” value (male F-344 rats; doses tested i.p.) was “a portion of the charcoal meal was always found to advance”.
